Patent publication US20230391756A1, “NEW COMPOUND” (JANSSEN PHARMACEUTICA NV, priority 2020, published 2023)
pEC50, pIC50: −log10 of the molar value.

Assays:
[1] = system: NLRP3 inflammasome pathway (IL-1β); assay: PBMC assay: IL-1β release after LPS stimulation; format: cell-based; details: human PBMCs, 100 ng/ml LPS for 6 hrs, MSD
Experimental: The activity of a compound according to the present invention can be assessed by in vitro methods.
(§1) Peripheral venous blood was collected from healthy individuals and human peripheral blood mononuclear cells (PBMCs) were isolated from blood by Ficoll-Histopaque (Sigma-Aldrich, A0561) density gradient centrifugation. After isolation, PBMCs were stored in liquid nitrogen for later use. Upon thawing, PBMC cell viability was determined in growth medium (RPMI media supplemented with 10% fetal bovine serum, 1% Pen-Strep and 1% L-glutamine). […] PBMCs were added at a density of 7.5×10^4 cells per well and incubated for 30 min in a 5% CO2 incubator at 37° C. LPS stimulation was performed by addition of 100 ng/ml LPS (final concentration, Invivogen, tlrl-smlps) for 6 hrs followed by collection of cellular supernatant and the analysis of IL-1β (μM) and TNF cytokines levels (μM) via MSD technology according to manufacturers' guidelines (MSD, K151A0H).

TNF = assay: PBMC assay: TNF cytokine level after LPS stimulation; format: cell-based; details: human PBMCs, 100 ng/ml LPS for 6 hrs, MSD, read-out: TNFα EC50
Experimental: as §1

Row | SMILES | melting point [°C] | pIC50 [1] | pEC50 (TNF)
1 | CC(C)n1nc(CC(=O)N[C@H]2C[C@@H](C(C)(C)O)C2)c(=O)c2ccc(C(F)(F)F)cc21 [F-10] | 181 | 4.94 | < 4.70
2 | CC(C)n1nc(CC(=O)Nc2ccc3cncn3c2)c(=O)c2ccc(C(F)(F)F)cc21 [F-15] | 152.7 | 6.62 | 4.96
3 | CC(C)n1nc(CC(=O)Nc2ccn3cnnc3c2)c(=O)c2ccc(C(F)(F)F)cc21 [F-17] | 212.3 | 5.27 | < 4.70
4 | CC(C)n1nc(CC(=O)Nc2ccc(=O)n(C)n2)c(=O)c2ccc(C(F)(F)F)cc21 [F-18] | 258.8 | 6.06 | < 4.70
5 | CC(C)n1nc(CC(=O)Nc2ccc3c(c2)[nH]c(=O)n3C)c(=O)c2ccc(C(F)(F)F)cc21 [F-19] | 241.6 | 7.04 | 5.08
6 | CC(C)n1nc(CC(=O)Nc2ccc3nncn3c2)c(=O)c2ccc(C(F)(F)F)cc21 [F-20] | 291.3 | 6.75 | < 4.70
7 | CC(C)n1nc(CC(=O)N[C@H]2C[C@@](C)(O)C2)c(=O)c2ccc(C(F)(F)F)cc21 [F-21] | 200.9 | 6.08 | < 4.70
8 | CC(C)n1nc(CC(=O)Nc2ccncn2)c(=O)c2ccc(C(F)(F)F)cc21 [F-22] | 178.3 | 6.33 | 4.91
9 | CC(C)n1nc(CC(=O)Nc2ccc3ncnn3c2)c(=O)c2ccc(C(F)(F)F)cc21 [F-24] | 206.8 | 6.09 | < 4.70
10 | CCn1nc(CC(=O)N[C@H]2C[C@@](C)(O)C2)c(=O)c2ccc(Cl)cc21 [F-25] | 191.5 | 5.67 | < 4.70
11 | CC(C)c1ccc2c(=O)c(CC(=O)N[C@H]3C[C@@](C)(O)C3)nn(C(C)C)c2c1 [F-26] | 201.5 | 5.97 | < 4.70
12 | CCn1nc(CC(=O)Nc2ccc3nncn3c2)c(=O)c2ccc(Cl)cc21 [F-27] | 254.3 | 6.21 | < 4.70
13 | CC(C)n1nc(CC(=O)N[C@H]2C[C@@](C)(O)C2)c(=O)c2ccc(Cl)cc21 [F-28] | 194.9 | 6.64 | < 4.70
14 | CC(C)n1nc(CC(=O)Nc2ccc3nncn3c2)c(=O)c2ccc(Cl)cc21 [F-29] | 292 | 6.21 | < 4.70
15 | CC(C)n1nc(CC(=O)Nc2ccc3nncn3n2)c(=O)c2ccc(Cl)cc21 [F-30] | 241.6 | 6.65 | 4.79
16 | CC(C)c1ccc2c(=O)c(CC(=O)Nc3ccc4nncn4c3)nn(C(C)C)c2c1 [F-31] | 181.4 | 6.66 | 4.94
17 | CC(C)c1ccc2c(=O)c(CC(=O)Nc3ccc4nncn4n3)nn(C(C)C)c2c1 [F-32] | 121.3 | 6.96 | 5.16
18 | CC(C)n1nc(CC(=O)Nc2ccc(=O)n(C)n2)c(=O)c2ccc(Br)cc21 [F-33] | 221.9 | 6.36 | < 4.70
19 | CCn1nc(CC(=O)Nc2ccc3nncn3n2)c(=O)c2ccc(Cl)cc21 [F-34] | 206.5 | 6.31 | < 4.70
20 | CC(C)n1nc(CC(=O)Nc2ccc3c(C#N)ncn3c2)c(=O)c2ccc(C(F)(F)F)cc21 [F-36] | 259.8 | 6.00 | < 4.70
21 | CC(C)n1nc(CC(=O)Nc2ccc3nnc(C(F)F)n3c2)c(=O)c2ccc(C(F)(F)F)cc21 [F-39] | 226.8 | 5.68 | 4.76
22 | Cc1nnc2cc(NC(=O)Cc3nn(C(C)C)c4cc(C(F)(F)F)ccc4c3=O)ccn12 [F-41] | 216.3 | 5.20 | < 4.70
23 | CC(C)n1nc(CC(=O)Nc2ccc3nncn3c2)c(=O)c2ccc(C3CCC3)cc21 [F-42] | 179.8 | 5.11 | 4.75
24 | CC(C)n1nc(CC(=O)NC2CCc3ncn(C)c3C2)c(=O)c2ccc(C(F)(F)F)cc21 (stereo not drawn) [F-43] | 221 | 5.29 | < 4.70
25 | CCn1nc(CC(=O)Nc2ccc3nncn3c2)c(=O)c2ccc(C3CCC3)cc21 [F-46] | 113.1 | 5.34 | < 4.70
26 | CC(C)n1nc(CC(=O)Nc2cc(Cl)c(=O)n(C(F)F)c2)c(=O)c2ccc(C(F)(F)F)cc21 [F-47] | 233 | 5.44 | < 4.70
27 | CCn1nc(CC(=O)Nc2ncc3ncn(C)c3n2)c(=O)c2ccc(C(F)(F)F)cc21 [F-48] | 271 | 5.49 | < 4.70

Row | SMILES | melting point [°C] | pIC50 [1] | pEC50 (TNF)
28 | CCC(C)n1nc(CC(=O)Nc2ccc3nncn3c2)c(=O)c2ccc(C(F)(F)F)cc21 (stereo not drawn) [F-49] | 156.4 | 5.50 | < 4.70
29 | CC(C)n1nc(CC(=O)Nc2ncc3ncn(C)c3n2)c(=O)c2ccc(C(F)(F)F)cc21 [F-50] | 281.4 | 5.53 | < 4.70
30 | Cc1ncc2n1CCC(NC(=O)Cc1nn(C(C)C)c3cc(C(F)(F)F)ccc3c1=O)C2 (stereo not drawn) [F-51] | 233.4 | 5.61 | < 4.70
31 | CCn1nc(CC(=O)Nc2ccc3ncn(C)c3n2)c(=O)c2ccc(C(F)(F)F)cc21 [F-57] | 237.8 | 6.29 | < 4.70
32 | CC(C)c1ccc2c(=O)c(CC(=O)Nc3ccc4nccn4n3)nn(C3CC3)c2c1 [F-58] | 190.1 | 6.43 | 4.80
33 | CCn1nc(CC(=O)Nc2ccc3nccn3n2)c(=O)c2ccc(C(F)(F)F)cc21 [F-60] | 193 | 6.46 | ~4.89
34 | O=C(Cc1nn(C2CC2)c2cc(C(F)(F)F)ccc2c1=O)Nc1ccc2nccn2n1 [F-61] | 216.4 | 6.54 | < 4.70
35 | CCn1nc(CC(=O)Nc2ccc3nccn3n2)c(=O)c2ccc(C3CC3)cc21 [F-62] | 193.4 | 6.56 | < 4.70
36 | CC(F)(F)c1ccc2c(=O)c(CC(=O)Nc3ccc4nccn4n3)nn(C3CC3)c2c1 [F-64] | 188.9 | 6.59 | 5.10
37 | O=C(Cc1nn(C2CC2)c2cc(Br)ccc2c1=O)Nc1ccc2nccn2n1 [F-66] | 244.6 | 6.64 | < 4.70
38 | CC(F)(F)c1ccc2c(=O)c(CC(=O)Nc3ccc4nncn4c3)nn(C3CC3)c2c1 [F-67] | 145.4 | 6.66 | < 4.70
39 | CCn1nc(CC(=O)Nc2ccc3nncn3c2)c(=O)c2ccc(C(C)(F)F)cc21 [F-68] | 279.8 | 6.70 | < 4.70
40 | CCn1nc(CC(=O)Nc2ccc3nncn3n2)c(=O)c2ccc(C(C)(F)F)cc21 [F-70] | 252.9 | 6.83 | 5.11
41 | O=C(Cc1nn(C2CC2)c2cc(Br)ccc2c1=O)Nc1ccc2nncn2c1 [F-71] | 310 | 6.98 | < 4.70
42 | CCn1nc(CC(=O)Nc2ccc3nncn3c2)c(=O)c2ccc(C(C)(C)F)cc21 [F-74] | 238.2 | 6.40 | 4.90
43 | CC(C)n1nc(CC(=O)Nc2ccc3nncn3c2)c(=O)c2ccc(C(C)(C)F)cc21 [F-75] | 256.8 | 6.28 | 4.83
44 | CC(C)n1nc(CC(=O)Nc2ccc(I)nn2)c(=O)c2ccc(C(F)(F)F)cc21 [F-85] | 177.9 | 4.82 | < 4.70
45 | CC(C)n1nc(CC(=O)Nc2ccc(C3CC3)nn2)c(=O)c2ccc(C(F)(F)F)cc21 [F-86] | 185.8 | 4.89 | < 4.70
46 | CC(C)n1nc(CC(=O)Nc2nc3ccccc3n2C)c(=O)c2ccc(C(F)(F)F)cc21 [F-91] | 214.7 | < 4.70 | < 4.70
47 | CC(C)n1nc(CC(=O)Nc2nc3ccc(C#N)cc3n2C)c(=O)c2ccc(C(F)(F)F)cc21 [F-92] | 242.9 | < 4.70 | < 4.70
48 | CC(C)n1nc(CC(=O)Nc2nc3ccc(Br)cc3n2C)c(=O)c2ccc(C(F)(F)F)cc21 [F-93] | 219.5 | < 4.70 | < 4.70
49 | Cc1ccc2c(c1)nc(NC(=O)Cc1nn(C(C)C)c3cc(C(F)(F)F)ccc3c1=O)n2C [F-94] | 217.3 | < 4.70 | < 4.70
50 | Cc1ccc2nc(NC(=O)Cc3nn(C(C)C)c4cc(C(F)(F)F)ccc4c3=O)n(C)c2c1 [F-95] | 217.4 | < 4.70 | < 4.70
51 | CC(C)n1nc(CC(=O)Nc2nc3ccc(F)cc3n2C)c(=O)c2ccc(Br)cc21 [F-96] | 229.8 | < 4.70 | < 4.70
52 | CC(C)n1nc(CC(=O)Nc2nc3cc(F)ccc3n2C)c(=O)c2ccc(Br)cc21 [F-97] | 245.3 | < 4.70 | < 4.70
53 | CC(C)n1nc(CC(=O)Nc2nc3cc(F)ccc3n2C)c(=O)c2ccc(C(F)(F)F)cc21 [F-98] | 222.5 | < 4.70 | < 4.70
